Four compounds from patent US20230293629A1, “METHODS FOR ATTENUATING RELEASE OF INFLAMMATORY MEDIATORS AND PEPTIDES USEFUL THEREIN” (BIOMARCK PHARMACEUTICALS LTD., priority 2006, published 2023) can be followed below.

Where a SMILES comes first, the peptide text is derived from it. Where no end group is shown, it is not given here. The star is where a group is joined. Myristoyl = CCCCCCCCCCCCCC(=O)*

The test system of the assay is U937 cells. Nature of the assay: PMA-stimulated lysozyme secretion by U937 cells. In kind it is cell-based, human. Conditions: for % Inhibition Lysozyme: 50 μM test peptide, two hour incubation with 100 nM PMA, U937 cells. In outline: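 U937 cells at 2.5×10^6 cells/ml in phenol red-free RPMI-1640 were preincubated 10 min at 37 °C with 50 μM test peptide, then stimulated 2 h with 100 nM PMA. Secreted lysozyme was measured by decrease in A450 of Micrococcus lysodeikticus suspension (pH 7.0) against an egg white lysozyme standard, expressed as percentage of PMA control.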

As for Ac-GAQFSKTAAKGEAAAERPGEAAVA, the “% Inhibition Lysozyme” value was found to be 39.8%.
On to `CCCCCCCCCCCCCC(=O)NCC(=O)N[C@H](C(=O)N[C@@H](C)C(=O)N1CCC[C@H]1C(=O)N[C@@H](C)C(=O)N[C@@H](C)C(=O)N[C@@H](CCC(=O)O)C(=O)NCC(=O)N[C@@H](C)C(=O)NCC(=O)N[C@@H](C)C(=O)N[C@@H](CCC(=O)O)C(=O)N[C@H](C(=O)N[C@@H](CCCCN)C(=O)N[C@@H](CCCNC(=N)N)C(=O)N[C@@H](C)C(=O)N[C@@H](CO)C(=O)N[C@@H](C)C(=O)N[C@@H](CCC(=O)O)C(=O)N[C@@H](C)C(=O)N[C@@H](CCCCN)C(=O)N[C@@H](CCC(N)=O)C(=O)N[C@@H](C)C(=O)N[C@@H](Cc1ccccc1)C(=O)O)C(C)C)[C@@H](C)O` [RNS, reference compound] (Myristoyl-GTAPAAEGAGAEVKRASAEAKQAF-OH; C-terminus assumed), for which the “% Inhibition Lysozyme” value amounted to 0%. Moreover, for the setting “any of the time points or concentrations tested”, the “effect on PMA-enhanced lysozyme secretion” value is recorded as “did not affect”.
For Ac-GAQFSKTAAK [Ac-GAQFSKTAAK], the “% Inhibition Lysozyme” value was 41.2%.
On to `CCCCCCCCCCCCCC(=O)NCC(=O)N[C@@H](C)C(=O)N[C@@H](CCC(N)=O)C(=O)N[C@@H](Cc1ccccc1)C(=O)N[C@@H](CO)C(=O)N[C@@H](CCCCN)C(=O)N[C@H](C(=O)N[C@@H](C)C(=O)N[C@@H](C)C(=O)N[C@@H](CCCCN)C(=O)NCC(=O)N[C@@H](CCC(=O)O)C(=O)N[C@@H](C)C(=O)N[C@@H](C)C(=O)N[C@@H](C)C(=O)N[C@@H](CCC(=O)O)C(=O)N[C@@H](CCCNC(=N)N)C(=O)N1CCC[C@H]1C(=O)NCC(=O)N[C@@H](CCC(=O)O)C(=O)N[C@@H](C)C(=O)N[C@@H](C)C(=O)N[C@H](C(=O)N[C@@H](C)C(=O)O)C(C)C)[C@@H](C)O` [MANS] (Myristoyl-GAQFSKTAAKGEAAAERPGEAAVA-OH; C-terminus assumed), for which the “% Inhibition Lysozyme” value is on record as 40.8%. Further, the “reduction in lysozyme secretion relative to the PMA control reference” value (10 μM, 1 hour) is on record as “about 20%”. Moreover, the “lysozyme secretion relative to control as 100%” value (10 μM, 1 hour, PMA control reference about 210%) is “about 170%”. The “reduction in lysozyme secretion relative to the PMA control reference” value (10 μM, 2 hour) was “about 20%”. Besides, for the setting “10 μM, 2 hour, PMA control reference about 240%”, the “lysozyme secretion relative to control as 100%” value is listed as “about 195%”. Besides, for the setting “50 μM, 1 hour”, the “reduction in lysozyme secretion relative to the PMA control reference” value is on record as “about 20%”. Moreover, under “50 μM, 1 hour, PMA control reference about 210%”, the “lysozyme secretion relative to control as 100%” value is on record as “about 170%”. Further, the “reduction in lysozyme secretion relative to the PMA control reference” value (50 μM, 2 hour) is given as “about 25%”. Further, the “lysozyme secretion relative to control as 100%” value (50 μM, 2 hour, PMA control reference about 240%) is “about 185%”. Besides, the “reduction in lysozyme secretion relative to the PMA control reference” value (100 μM, 1 hour) is on record as “about 45%”. Further, the “lysozyme secretion relative to control as 100%” value (100 μM, 1 hour, PMA control reference about 210%) was “about 115%”. For the setting “100 μM, 2 hour”, the “reduction in lysozyme secretion relative to the PMA control reference” value is reported as “about 40%”. Besides, the “lysozyme secretion relative to control as 100%” value (100 μM, 2 hour, PMA control reference about 240%) is listed as “about 140%”.
